Reference: patent US20240309016A1, “MACROCYCLIC HETEROCYCLE COMPOUNDS AND USE THEREOF” (TAKEDA PHARMACEUTICAL COMPANY LIMITED, priority 2023, published 2024)

Target: T1, human OX2 receptor (Homo sapiens, UniProt O43614)
T1 construct: expressed in transfected cells
T1 sequence (O43614 1-444): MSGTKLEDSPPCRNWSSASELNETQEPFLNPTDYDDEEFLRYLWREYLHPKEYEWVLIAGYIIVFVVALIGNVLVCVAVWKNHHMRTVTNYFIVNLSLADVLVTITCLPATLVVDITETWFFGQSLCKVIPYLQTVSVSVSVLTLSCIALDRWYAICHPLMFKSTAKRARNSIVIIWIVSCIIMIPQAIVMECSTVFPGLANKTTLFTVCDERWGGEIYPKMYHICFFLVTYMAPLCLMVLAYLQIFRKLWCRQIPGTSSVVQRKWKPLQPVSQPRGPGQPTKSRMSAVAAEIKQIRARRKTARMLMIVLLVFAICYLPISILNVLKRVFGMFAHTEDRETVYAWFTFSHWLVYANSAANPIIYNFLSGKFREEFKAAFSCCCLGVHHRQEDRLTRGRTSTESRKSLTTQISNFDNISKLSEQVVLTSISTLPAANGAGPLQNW
Test: Measurement of orexin type 2 receptor agonist activity (Experimental Example 2; Fluo-4 AM calcium fluorescence, FDSS μCELL)
Format: cell-based
Details: compound at 3 μM; CHO cells expressing human OX2 receptor; DMSO = 0%, 10 nM orexin A (human) = 100%
Experimental: In order to obtain cell clones that stably express human orexin type 2 receptor, human orexin type 2 (residues 1-444, NCBI Reference Sequence: AK314279) was constructed in a pcDNA3.1 (+) vector (Invitrogen) to express in mammalian cells. This plasmid DNA was transfected into CHO-K1 cells by electroporation, and stable clones were obtained by limiting dilution using resistance to G418 as a selection marker.
CHO cells in which human OX2 receptor was forcibly expressed were seeded at 10,000 cells/well into a 384-well black transparent bottom plate (BD falcon), and were incubated at 37° C., 5% CO2 for 1 day after incubation at room temperature for 30 minutes. After removing the cell plate medium, assay buffer containing calcium indicator A (HBSS (Thermo Fisher Scientific), 20 mM HEPES (Thermo Fisher Scientific), 0.1% BSA (Sigma-Aldrich), 2.5 μg/mL Fluo-4 AM (Dojin Kagaku), 0.08% Pluronic F127 (Dojin Kagaku), 1.25 mM probenecid (Dojin Kagaku)) was added at 30 μL/well. After incubation in a 5% CO2 incubator at 37° C. for 30 minutes, it was incubated at room temperature for another 30 minutes. Add 10 μL/well of the test compound diluted with assay buffer B (HBSS, 20 mM HEPES, 0.1% BSA), and use FDSS μCELL (Hamamatsu Photonics) to measure the fluorescence value every 1 second for 1 minute, and then every 2 seconds for 1 minute. It was measured for 1 minute and 40 seconds. The amount of fluorescence value when DMSO is added instead of the test compound is defined as 0%, and the amount of fluorescence value when orexin A (human) (Peptide Institute) with a final concentration of 10 nM is added is defined as 100%. The activity (%) of the test compound was calculated. Table 2-1, 2-2, 2-3, and 2-4 show the activity of each compound at a concentration of 3 μM.

Row | OX2R agonist activity (3 μM, %) [%] | SMILES
1 | 100 | CCS(=O)(=O)N[C@@H]1[C@@H]2Cc3cccc(c3F)Oc3nc(ccc3Cl)CNC(=O)N2CC1(F)F [Example 17, N-[(15aS,16R)-7-chloro-17,17,20-trifluoro-1-oxo-2,3,15a,16,17,18-hexahydro-1H,15H-4,8-(azeno)-14,10-(metheno)pyrrolo[1,2-j][1,8,10]oxadiazacyclo-heptadecin-16-yl]ethanesulfonamide]
2 | 104 | CS(=O)(=O)N[C@H]1[C@@H](F)CN2C(=O)NCc3ccc(C(F)F)c(n3)Oc3cccc(c3F)C[C@@H]12 [Example 18, N-[(15aS,16R,17S)-7-(difluoromethyl)-17,20-difluoro-1-oxo-2,3,15a,16,17,18-hexahydro-1H,15H-8,4-(azeno)-10,14-(metheno)pyrrolo[1,2-j][1,8,10]oxadiazacyclo-heptadecin-16-yl]methanesulfonamide]
3 | 109 | Cc1ccc2nc1Oc1cccc(c1F)C[C@H]1[C@@H](NS(=O)(=O)CF)C(F)(F)CN1C(=O)NC2 [Example 19, 1-fluoro-N-[(15aS,16R)-17,17,20-trifluoro-7-methyl-1-oxo-2,3,15a,16,17,18-hexahydro-1H,15H-4,8-(azeno)-10,14-(metheno)pyrrolo[1,2-j][1,8,10]oxadiazacyclo-heptadecin-16-yl]methanesulfonamide]
4 | 105 | CCS(=O)(=O)N[C@H]1CCN2C(=O)NCc3nc(c(F)cc3F)Oc3cccc(c3)C[C@@H]12 [Example 20, N-[(15aS,16S)-5,7-difluoro-1-oxo-2,3,15a,16,17,18-hexahydro-1H,15H-4,8-(azeno)-14,10-(metheno)pyrrolo[1,2-j][1,8,10]oxadiazacyclo-heptadecin-16-yl]ethanesulfonamide]
5 | 100 | CCS(=O)(=O)N[C@@H]1[C@@H]2Cc3cccc(c3F)Oc3nc(c(F)cc3F)CNC(=O)N2CC1(F)F [Example 21, N-[(15aS,16R)-5,7,17,17,20-pentafluoro-1-oxo-2,3,15a,16,17,18-hexahydro-1H,15H-4,8-(azeno)-14,10-(metheno)pyrrolo[1,2-j][1,8,10]oxadiazacyclo-heptadecin-16-yl]ethanesulfonamide]
6 | 96 | Cc1ccc2nc1Oc1cccc(c1F)C[C@H]1[C@@H](NS(=O)(=O)C3CC3)C(F)(F)CN1C(=O)NC2 [Example 23, N-[(15aS,16R)-17,17,20-trifluoro-7-methyl-1-oxo-2,3,15a,16,17,18-hexahydro-1H,15H-4,8-(azeno)-14,10-(metheno)pyrrolo[1,2-j][1,8,10]oxadiazacyclo-heptadecin-16-yl]cyclopropanesulfonamide]
7 | 104 | CCS(=O)(=O)N[C@H]1[C@@H](F)CN2C(=O)NCc3ccc(Cl)c(n3)Oc3cccc(c3F)C[C@@H]12 [Example 24, N-[(15aS,16R,17S)-7-chloro-17,20-difluoro-1-oxo-2,3,15a,16,17,18-hexahydro-1H,15H-4,8-(azeno)-14,10-(metheno)pyrrolo[1,2-j][1,8,10]oxadiazacyclo-heptadecin-16-yl]ethanesulfonamide]
8 | 105 | CCS(=O)(=O)N[C@H]1[C@@H](F)CN2C(=O)NCc3ccc(C)c(n3)Oc3cccc(c3F)C[C@@H]12 [Example 25, N-[(15aS,16R,17S)-17,20-difluoro-7-methyl-1-oxo-2,3,15a,16,17,18-hexahydro-1H,15H-4,8-(azeno)-14,10-(metheno)pyrrolo[1,2-j][1,8,10]oxadiazacyclo-heptadecin-16-yl]ethanesulfonamide]
9 | 102 | CCS(=O)(=O)N[C@@H]1[C@@H]2Cc3cccc(c3F)Oc3nc(ccc3OC)CNC(=O)N2CC1(F)F [Example 26, N-[(15aS,16R)-17,17,20-trifluoro-7-methoxy-1-oxo-2,3,15a,16,17,18-hexahydro-1H,15H-4,8-(azeno)-10,14-(metheno)pyrrolo[1,2-j][1,8,10]oxadiazacyclo-heptadecin-16-yl]ethanesulfonamide]
10 | 102 | CCS(=O)(=O)N[C@H]1[C@@H](F)CN2C(=O)NCc3ccc(C(F)F)c(n3)Oc3cccc(c3F)C[C@@H]12 [Example 27, N-[(15aS,16R,17S)-7-(difluoromethyl)-17,20-difluoro-1-oxo-2,3,15a,16,17,18-hexahydro-1H,15H-8,4-(azeno)-10,14-(metheno)pyrrolo[1,2-j][1,8,10]oxadiazacyclo-heptadecin-16-yl]ethanesulfonamide]
11 | 94 | O=C1NCc2ccc(C(F)F)c(n2)Oc2cccc(c2F)C[C@H]2[C@@H](NS(=O)(=O)C3CC3)[C@@H](F)CN12 [Example 28, N-[(15aS,16R,17S)-7-(difluoromethyl)-17,20-difluoro-1-oxo-2,3,15a,16,17,18-hexahydro-1H,15H-8,4-(azeno)-10,14-(metheno)pyrrolo[1,2-j][1,8,10]oxadiazacyclo-heptadecin-16-yl]cyclopropanesulfonamide]
12 | 100 | CCS(=O)(=O)N[C@@H]1[C@@H]2Cc3cccc(c3F)Oc3nc(ccc3C(F)F)CNC(=O)N2CC1(F)F [Example 29, N-[(15aS,16R)-7-(difluoromethyl)-17,17,20-trifluoro-1-oxo-2,3,15a,16,17,18-hexahydro-1H,15H-4,8-(azeno)-10,14-(metheno)pyrrolo[1,2-j][1,8,10]oxadiazacyclo-heptadecin-16-yl]ethanesulfonamide]
13 | 102 | CS(=O)(=O)N[C@@H]1[C@@H]2Cc3cccc(c3F)Oc3nc(c(F)cc3Cl)CNC(=O)N2CC1(F)F [Example 30, N-[(15aS,16R)-7-chloro-5,17,17,20-tetrafluoro-1-oxo-2,3,15a,16,17,18-hexahydro-1H,15H-4,8-(azeno)-14,10-(metheno)pyrrolo[1,2-j][1,8,10]oxadiazacyclo-heptadecin-16-yl]methanesulfonamide]
14 | 102 | CCS(=O)(=O)N[C@H]1[C@@H](F)CN2C(=O)NCc3ccc(F)c(n3)Oc3cccc(c3F)C[C@@H]12 [Example 31, N-[(15aS,16R,17S)-7,17,20-trifluoro-1-oxo-2,3,15a,16,17,18-hexahydro-1H,15H-4,8-(azeno)-14,10-(metheno)pyrrolo[1,2-j][1,8,10]oxadiazacyclo-heptadecin-16-yl]ethanesulfonamide]
15 | 101 | CCS(=O)(=O)N[C@@H]1[C@@H]2Cc3cccc(c3F)Oc3nc(c(F)cc3C)CNC(=O)N2CC1(F)F [Example 32, N-[(15aS,16R)-5,17,17,20-tetrafluoro-7-methyl-1-oxo-2,3,15a,16,17,18-hexahydro-1H,15H-4,8-(azeno)-14,10-(metheno)pyrrolo[1,2-j][1,8,10]oxadiazacyclo-heptadecin-16-yl]ethanesulfonamide]
16 | 93 | CN(C)S(=O)(=O)N[C@H]1[C@@H](F)CN2C(=O)NCc3ccc(Cl)c(n3)Oc3cccc(c3F)C[C@@H]12 [Example 34, N′-[(15aS,16R,17S)-7-chloro-17,20-difluoro-1-oxo-2,3,15a,16,17,18-hexahydro-1H,15H-4,8-(azeno)-14,10-(metheno)pyrrolo[1,2-j][1,8,10]oxadiazacyclo-heptadecin-16-yl]-N,N-dimethylsulfuric diamide]
17 | 93 | CCS(=O)(=O)N[C@@H]1[C@@H]2Cc3cccc(c3F)Oc3nc(c(F)cc3Cl)CNC(=O)N2CC1(F)F [Example 35, N-[(15aS,16R)-7-chloro-5,17,17,20-tetrafluoro-1-oxo-2,3,15a,16,17,18-hexahydro-1H,15H-4,8-(azeno)-10,14-(metheno)pyrrolo[1,2-j][1,8,10]oxadiazacyclo-heptadecin-16-yl]ethanesulfonamide]
18 | 101 | CN(C)S(=O)(=O)N[C@H]1[C@@H](F)CN2C(=O)NCc3ccc(C(F)F)c(n3)Oc3cccc(c3F)C[C@@H]12 [Example 37, N′-[(15aS,16R,17S)-7-(difluoromethyl)-17,20-difluoro-1-oxo-2,3,15a,16,17,18-hexahydro-1H,15H-8,4-(azeno)-10,14-(metheno)pyrrolo[1,2-j][1,8,10]oxadiazacyclo-heptadecin-16-yl]-N,N-dimethylsulfuric diamide]
